Source: patent publication US20070203118A1, “SUBSTITUTED TETRAHYDROISOQUINOLINES USED IN THE FORM OF MMP INHIBITORS, METHOD FOR THE PRODUCTION AND USE THEREOF IN THE FORM OF DRUGS” (SANOFI-AVENTIS DEUTSCHLAND GMBH, priority 2004, published 2007)

Target: T1, catalytic domain of human gelatinase-A (MMP-9) (Homo sapiens, UniProt P14780)
T1 construct: Determination of the Enzymatic Activity of the Catalytic Domain of Human Gelatinase-A (MMP-9); purchased Roche, Mannheim
Experiment: Enzymatic activity of the catalytic domain of human gelatinase (MMP-9), fluorogenic substrate
Assay type: biochemical
Conditions: stated in the text
Protocol: Determination of the Enzymatic Activity of the Catalytic Domain of Human Gelatinase-A (MMP-9)
Activation of the proenzyme:
2 parts by volume of proenzyme were incubated with 1 part by volume of APMA solution at 37° C. for 4 hours. The APMA solution was prepared from a 10 mmol/l p-aminophenylmercuric acetate solution in 0.1 mmol/l NaOH by dilution with 3 parts by volume of Tris/HCl buffer pH 7.5 (see below). The pH was adjusted to between 7.0 and 7.5 by adding 1 mmol/l HCl. After activation of the enzyme it was diluted with the Tris/HCl buffer to a concentration of 4.2 mU/ml.
The enzymic activity was measured by incubating 10 μl of enzyme solution with 10 μl of a 3% strength (v/v) buffered dimethyl sulfoxide solution (reaction 1) for 15 minutes. The enzyme inhibitor activity was measured by incubating 10 μl of enzyme solution with 10 μl of a 3% strength (v/v) buffered dimethyl sulfoxide solution which contained the enzyme inhibitor (reaction 2).
The enzymic reaction both in the case of reaction 1 and in the case of reaction 2 was followed after addition of 10 μl of a 3% strength (v/v) aqueous dimethyl sulfoxide solution which contained 0.15 mmol/l of the substrate by fluorescence spectroscopy (328 nm (extinction)/393 nm (emission)).
The enzymic activity has been presented as increase in extinction/minute.
The effect of the inhibitor was calculated as percentage inhibition by the following formula: % inhibition=100−[(increase in extinction/minute in reaction 2)/(increase in extinction/minute in reaction 1)×100].
The IC50, which is the concentration of inhibitor which is necessary for 50% inhibition of the enzymic activity, was determined graphically by plotting the percentage inhibitions at various inhibitor concentrations.
The buffer solution contained 0.05% Brij (Sigma, Deisenhofen, Germany) and 0.1 mol/l Tris/HCl, 0.1 mol/l NaCl, 0.01 mol/l CaCl2 (pH=7.5). The enzyme solution contained 4.2 mU/ml of the enzyme domain. The substrate solution contained 0.15 mmol/l of the fluorogenic substrate (7-methoxycoumarin-4-yl)acetyl-Pro-Leu-Gly-Leu-3-(2′,4′-dinitrophenyl)-L-2,3-diaminopropionyl-Ala-Arg-NH2 (Bachem, Heidelberg, Germany).

T1 sequence (P14780 107-707 limits assumed): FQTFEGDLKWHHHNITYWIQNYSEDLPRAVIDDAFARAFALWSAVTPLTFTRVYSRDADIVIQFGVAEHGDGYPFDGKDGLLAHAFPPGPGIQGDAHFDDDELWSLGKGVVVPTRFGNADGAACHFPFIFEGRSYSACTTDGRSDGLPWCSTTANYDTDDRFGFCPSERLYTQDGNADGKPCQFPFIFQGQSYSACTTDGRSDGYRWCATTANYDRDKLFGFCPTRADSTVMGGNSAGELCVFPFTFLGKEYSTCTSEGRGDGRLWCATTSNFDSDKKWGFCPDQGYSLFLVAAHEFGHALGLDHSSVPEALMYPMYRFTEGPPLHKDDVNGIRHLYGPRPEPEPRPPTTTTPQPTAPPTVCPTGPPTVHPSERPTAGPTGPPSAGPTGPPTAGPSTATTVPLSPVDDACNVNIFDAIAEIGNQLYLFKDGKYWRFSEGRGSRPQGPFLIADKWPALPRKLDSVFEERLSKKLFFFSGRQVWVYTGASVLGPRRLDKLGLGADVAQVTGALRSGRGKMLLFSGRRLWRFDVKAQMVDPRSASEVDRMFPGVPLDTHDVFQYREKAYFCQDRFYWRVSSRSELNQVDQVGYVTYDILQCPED

| Compound | ratio of MMP1 to MMP9 inhibition |
| --- | --- |
| COc1ccc(Oc2ccc(S(=O)(=O)N3CCc4ccccc4C3C(=O)NO)cc2)cc1 (centres unmarked) | 60 |
| COc1ccc(S(=O)(=O)N2CCc3ccccc3C2C(=O)NO)cc1 (centres unmarked) [reference compound] | 3.7 |
